Laboratory results: publication PMC7728372, “Synthesis and Biological Evaluation of Amino Chalcone Derivatives as Antiproliferative Agents” (Molecules, 2020)
Like-named read-outs stand apart in the source and are kept apart here. One block for each molecule: values may come before it.

Legend:
K562 cell line = tested on: K562 cell line; set-up: method as in PMID 19837593; conditions: cited from earlier work
HepG2 cells = tested on: HepG2 cells; set-up: method as in PMID 23471882; conditions: cited from earlier work
MCF-7 cells [1] = conditions: cited from earlier work
hCA IX = tested on: hCA IX; set-up: method as in PMID 29852328; conditions: cited from earlier work
GES-1 cells = assay: MTT antiproliferative assay, non-cancer GES-1 cells; format: cell-based; conditions: non-cancer cell line, exposure for 48 h
Method: (§1) Cell lines used were cultured in humidified incubator at 37 °C and 5% CO2. The RPMI-1640 medium was supplemented with 10% fetal bovine serum, penicillin (100 U/mL) and streptomycin (0.1 mg/mL).
(§2) Cell lines were seeded into […] and incubated for 24 h. Then cells were treated with different concentrations of compounds. And after another 48 h, MTT reagent (20 μL per well) was added and then incubated at 37 °C for 4 h. Formazan was then dissolved with DMSO. Absorbencies of formazan solution were measured at […]. The IC50 values of tested compounds were calculated by SPSS version 17.0.

MCF-7 cells [2] = assay: MTT antiproliferative assay, MCF-7 cells; format: cell-based, human
Method: as §1, §2

HCT-116 cells = assay: MTT antiproliferative assay, HCT-116 cells; format: cell-based, human
Method: as §1, §2

VEGFR-2/KDR kinase = molecular target: VEGFR-2/KDR kinase; set-up: method as in PMID 27777009; conditions: cited from earlier work
PC-3 cells = tested on: PC-3 cells; set-up: method as in PMID 27777009; conditions: cited from earlier work
MGC-803 cells [3] = tested on: MGC-803 cells; set-up: method as in PMID 27423479, PMID 30763884, PMID 27213317; conditions: earlier work of the group; cited from earlier work
SKVO3 cells = tested on: SKVO3 cells; set-up: method as in PMID 27213819; conditions: cited from earlier work
MGC-803 cells [4] = assay: MTT antiproliferative assay, MGC-803 cells; format: cell-based, human; conditions: Homo sapiens, MGC-803, 48 h, exposure for 48 h
Method: as §1, §2

[5] = Homo sapiens, MCF7, exposure for 48 h
[6] = Homo sapiens, HCT-116, exposure for 48 h

Compound: COc1ccc(/C=C/C(=O)c2cc(OC)c(OC)c(OC)c2)cc1 [Compound 2, (E)-3-(4-methoxyphenyl)-1-(3,4,5-trimethoxyphenyl)prop-2-en-1-one]
IC50 (K562 cell line): 4500 nM

Compound: COc1ccc(/C=C/C(=O)c2ccc(OC)c3c2OC(C)(C)C=C3)cc1 [Compound 3, millepachine]
IC50 (HepG2 cells): 1510 nM

Compound: O=C(/C=C/c1cn(S(=O)(=O)c2ccc(Cl)cc2Cl)c2ccccc12)c1ccncc1 [Compound 4]
IC50 (MCF-7 cells [1]): 12200 nM
IC50 (hCA IX): 130 nM

IC50 (MCF-7 cells [2]; exposure for 48 h): 12100 ± 1280 nM
IC50 (HCT-116 cells; exposure for 48 h): 14400 ± 1730 nM
Compound: O=c1[nH]cc(F)c(=O)[nH]1 [Compound 5-Fu, reference compound]
IC50 (GES-1 cells): 8220 nM

Compound: CNC(=O)c1cc(Oc2ccc(C(=O)/C=C/c3cc(OC)c(OC)c(OC)c3)cc2)ccn1 [Compound 5]
IC50 (MCF-7 cells [1]): 3880 nM
IC50 (VEGFR-2/KDR kinase): 720 nM
IC50 (PC-3 cells): 3150 nM

Compound: COc1cc(/C=C/C(=O)c2ccc(NC(=O)CSC(=S)N3CCN(CCO)CC3)cc2)cc(OC)c1OC [Compound 6]
IC50 (MGC-803 cells [3]): 1740 nM

Compound: COc1cc(/C=C/C(=O)c2ccc(OCCCn3cc(CSc4nccs4)nn3)cc2)cc(OC)c1OC [Compound 7]
IC50 (MGC-803 cells [3]): 4260 nM

Compound: COc1ccc(N(C)c2cc(=O)oc3ccccc23)cc1NC(=O)CCCCl [Compound 9]
IC50 (SKVO3 cells): 3.5 nM

IC50 (MCF-7 cells [2]; [5]): 3120 ± 10 nM
IC50 (MGC-803 cells [4]): 1880 ± 220 nM
IC50 (HCT-116 cells; [6]): 2830 ± 30 nM
melting point: 182 to 183 °C
Compound: COc1cc(/C=C/C(=O)c2ccc(NC(=O)CCl)cc2)cc(OC)c1OC [Compound 13c]

IC50 (MCF-7 cells [2]; [5]): 2120 ± 130 nM
IC50 (MGC-803 cells [4]): 1640 ± 180 nM
IC50 (HCT-116 cells; [6]): 2400 ± 260 nM
melting point: 183 to 184 °C
Compound: COc1cc(/C=C/C(=O)c2ccc(NC(=O)CCCl)cc2)cc(OC)c1OC [Compound 13d]
